Measured values reported in article PMC10107299, “Neutralizing the Impact of the Virulence Factor LecA from Pseudomonas aeruginosa on Human Cells with New Glycomimetic Inhibitors” (Angewandte Chemie (International Ed. in English), 2023).
≈ marks a conversion by molar mass, not a printed value.

Legend:
[1] = Plasma protein binding (rapid equilibrium device), human plasma; assay type: in vitro ADME; conditions: both sexes, human, plasma, read-out: PPB Human (converted)
Description: mixer (Eppendorf). Acetonitrile and caffeine were dispensed using a Mantis Formulatrix. Then samples were centrifuged for 20 min at 2.270 x g at 4 °C and the supernatants were transferred to 96-well Greiner V-bottom plates. Peak areas of each compound and of the internal standard were analyzed using the MultiQuant 3.0 software (AB Sciex). Peak areas of the respective compound were normalized to the internal standard peak area and to the respective peak areas at time point 0 min: (C/D)/(A/B) with A: peak area of the compound at time point 0 min, B: peak area of the internal standard at time point 0 min, C: peak area of the compound at the respective time point, D: peak area of the internal standard at the respective time point. […]
Assessment of plasma protein binding
Plasma protein binding was assessed using the rapid equilibrium device (RED) system from ThermoFisher. Compounds were dissolved in DMSO. […]
high plasma protein binding. Compounds were diluted in murine plasma (from CD-1 mice, pooled) or in human plasma (human donors, both genders, pooled) to a final concentration of 1 µM. Dialysis buffer and plasma samples were added to the respective chambers according the manufacturer’s protocol. The RED plate was sealed with a tape and incubated at 37 °C for 2 hours at 800 rpm on an Eppendorf MixMate vortex-mixer. Then samples were withdrawn from the respective chambers. To 25 µL of each dialysis sample, 25 µL of plasma and to 25 µL of plasma sample, 25 µL of dialysis buffer was added. Then 150 µL ice-cold extraction solvent (ACN/H2O (90:10) containing 12.5 ng/mL caffeine as internal standard) was added. Samples were incubated for 30 min on ice. Then samples were centrifuged at 4 °C at 2270 x g for 10 min.
Supernatants were transferred to Greiner V-bottom 96-well plates and sealed with a tape. The […]
percentage of bound compound was calculated as follows:
(1) % free = (concentration buffer chamber / concentration plasma chamber) *100 […]
Samples were analyzed using an Agilent 1290 Infinity II HPLC system coupled to an AB Sciex QTrap 6500plus mass spectrometer. LC conditions were as follows: column: Agilent […]
Zorbax Eclipse Plus C18, 50x2.1 mm, 1.8 µm; temperature: 30 °C; injection volume: 5 µL per […]
sample; flow rate: 700 µL/min. Samples were run under acidic and buffered conditions.
Solvents for acidic conditions: A1: water + 0.1% formic acid; solvent B1: 95% acetonitrile/5% […]
H2O + 0.1% formic acid; solvents for buffered conditions: A2: 95% water + 5% acetonitrile + […]
5 mM ammonium acetate + 40 µL/L acetic acid; B2: 95% acetonitrile + 5% water + 5 mM […]
ammonium acetate + 40 µL/L acetic acid. The same gradient was applied for acidic and […]
buffered conditions: 99% A at 0 min, 99% A until 1 min, 99% - 0% A from 1 min to 4.0 min, […]
0% A until 5.0 min. Mass transitions for controls and compounds are depicted in the following […]

[2] = Kinetic solubility in TBS/Ca2+ buffer (HPLC-MS); assay type: physicochemical; conditions: aqueous buffer, kinetic from dmso stock; TBS/Ca2+ buffer pH 7.4, 1 % DMSO, N≥3; read-out: Solubility S (kinetic)
Description: Next, we quantified the solubility of at least one representative of each new class and of one parent bisacylhydrazone in aqueous media (Table 1). […]
TBS/Ca2+ buffer (20 mM Tris, 137 mM NaCl, 2.6 mM KCl at pH 7.4 supplemented with 1 mM […]
CaCl2) in presence of 25% DMSO. […]
Kinetic solubility was determined on the analytical HPLC-MS using Compass QuantAnalysis quantification software (Bruker). Samples were prepared from DMSO stock solutions by dilution with TBS/Ca2+ buffer to 100 µM with 1% DMSO present. Samples were incubated on a shaker for 1 h at r.t., centrifuged (21380 g, 20 min), supernatants were diluted with DMSO (1:3), analyzed by HPLC-MS and fitted to the individual calibration curves.
Every experiment was repeated independently at least three times. […]

LecA = target: T1, LecA (Pseudomonas aeruginosa, UniProt Q05097); test: LecA binding and cellular uptake by fluorescence confocal microscopy; assay type: cell-based; conditions: for Concentration for complete inhibition of LecA binding and cellular uptake: 0.5 μM LecA-AF488, H1299 cells, confocal microscopy; for LecA binding to H1299 cells (fluorescence signal): 10 μM inhibitor
T1 construct: made in house
Description: The ability of H2 and L2 to diminish LecA binding to host receptors at the plasma membrane and its subsequent internalization into H1299 cells was further analyzed by confocal fluorescence microscopy. Here, the applied LecA concentration was increased to improve signal to noise and consequently image quality and inhibitors were preincubated with 0.5 μM LecA before addition to the cells. […] Confocal microscopy images thus confirmed that the divalent inhibitors can prevent LecA binding to the cell surface and reduce lectin uptake in a concentration‐dependent manner. […]
LecA binding and cellular uptake by fluorescence confocal microscopy
Between 5 and 7 × 10^4 cells were seeded on a 12 mm glass coverslip to which they adhered overnight, at 37 °C and 5% CO2. The next day, the cells were incubated with 0.5 µM LecA-AF488 for 30 min at 4 °C and protected from light. Where indicated, LecA was firstly preincubated with PNPG, G2, K2, H2 or L2 in RPMI medium, for 30 min at room temperature and protected from light and then added to the cells for further incubation (30 min, 4 °C).
Subsequently, cells were washed with PBS (-/-) to remove the unbound lectin and inhibitors and the samples were incubated for 1 h at 37 °C. After the lectin stimulation, cells were washed twice with ice-cold PBS (-/-), fixed with 4% paraformaldehyde solution for 15 min and quenched with 50 mM ammonium chloride for 10 min. The membrane was permeabilized and cells were blocked by 0.2% Saponin in 3% BSA in PBS (w/v) for 30 min. The cell nuclei were counterstained with DAPI (5 × 10-9 g/L), and the samples were mounted on coverslips using Mowiol 4-88 (containing the anti-bleaching reagent DABCO). Samples were visualized with laser scanning confocal microscope system from Nikon (Eclipse Ti-E, A1R), equipped with a 60x oil immersion objective and a numerical aperture (NA) of 1.49. The images were analyzed

T1 sequence (Q05097 whole entry): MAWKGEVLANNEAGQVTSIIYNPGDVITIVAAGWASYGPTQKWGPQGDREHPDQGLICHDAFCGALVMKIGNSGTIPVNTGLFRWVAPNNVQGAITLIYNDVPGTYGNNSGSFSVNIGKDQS

Row | SMILES | fraction unbound at 2 h, 1 µM [1] | solubility kinetic at 1 h [2] [µM] | Concentration for complete inhibition of LecA binding and cellular uptake (LecA) [µM] | LecA binding to H1299 cells (fluorescence signal) (LecA)
1 | O=C(/C=C/c1ccc(O[C@@H]2O[C@H](CO)[C@H](O)[C@H](O)[C@H]2O)cc1)Nc1ccc(OCCOc2ccc(NC(=O)/C=C/c3ccc(O[C@@H]4O[C@H](CO)[C@H](O)[C@H](O)[C@H]4O)cc3)cc2)cc1 [Compound D1] | 0.004 | 3.3 ± 1.3 (≈ 2.84 µg/mL) |  | 
2 | COc1ccc(NC(=O)CCc2ccc(O[C@@H]3O[C@H](CO)[C@H](O)[C@H](O)[C@H]3O)cc2)cn1 [Compound G2] |  |  | 75 | 
3 | O=C(CCc1ccc(O[C@@H]2O[C@H](CO)[C@H](O)[C@H](O)[C@H]2O)cc1)Nc1ccc(OCCOc2ccc(NC(=O)CCc3ccc(O[C@@H]4O[C@H](CO)[C@H](O)[C@H](O)[C@H]4O)cc3)cn2)nc1 [Compound H2] | 0.005 | 14.8 ± 1.5 (≈ 12.8 µg/mL) |  | remarkably decreased
4 | O=C(CCc1ccc(O[C@@H]2O[C@H](CO)[C@H](O)[C@H](O)[C@H]2O)cc1)Nc1ccc(OCCOc2ccc(NC(=O)CCc3ccc(O[C@@H]4O[C@H](CO)[C@H](O)[C@H](O)[C@H]4O)cc3)cc2)cc1 [Compound D2] | 0.005 | 3.1 ± 2.1 (≈ 2.68 µg/mL) |  | 
5 | Cc1ccc(NC(=O)CCc2ccc(O[C@@H]3O[C@H](CO)[C@H](O)[C@H](O)[C@H]3O)cc2)cc1S(=O)(=O)O [Compound K2] |  |  | 75 | 
6 | O=C(CCc1ccc(O[C@@H]2O[C@H](CO)[C@H](O)[C@H](O)[C@H]2O)cc1)Nc1ccc(CCc2ccc(NC(=O)CCc3ccc(O[C@@H]4O[C@H](CO)[C@H](O)[C@H](O)[C@H]4O)cc3)cc2S(=O)(=O)O)c(S(=O)(=O)O)c1 [Compound L2] | 0.62 |  |  | remarkably decreased
7 | O=C(/C=C/c1ccc(O[C@@H]2O[C@H](CO)[C@H](O)[C@H](O)[C@H]2O)cc1)Nc1ccc(OCCOc2ccc(NC(=O)/C=C/c3ccc(O[C@@H]4O[C@H](CO)[C@H](O)[C@H](O)[C@H]4O)cc3)cn2)nc1 [Compound H1] |  | 8.1 ± 2.2 (≈ 6.99 µg/mL) |  | 
